Source: patent US12516130B2, “Single-domain antibody for targeting prostate specific membrane antigen (PSMA)” (NATIONAL INSTITUTE FOR BIOTECHNOLOGY IN THE NEGEV LTD., priority 2019, dated 2026)

What was measured:
[1] = system: PC3-PIP xenografts; experiment: In vivo tumor growth inhibition; parameters: species or system athymic nude mice; settings: fewer than in saline group
Procedure: PC3-PIP xenografts were grown in athymic nude mice, as described in the in vivo optical imaging section, above. When the average tumor size reached 200 mm^3, the mice were divided into three groups (controlled for average tumor size), each subjected to a different treatment: 150 μl saline (n=7), 2 mg/kg DOX (n=8), or 1.4 mg/kg (˜40 μg) NB7cysDOX (n=8). The treatment was administered to the tail vein twice a week for three consecutive weeks. At each sample point, the tumor volume was calculated (V=0.5×L×W×H), as previously described (Tomayko and Reynolds, 1989). A mouse was euthanized when tumor volume reached 1,500 mm^3 or when its physical condition deteriorated, according to the guidelines of the Committee for the Ethical Care and Use of Animals in Research at BGU. The estimated tumor volume prior to euthanasia and the rate-based T/C were determined as described previously (Aston et al., 2017).

[2] = system: PC3-PIP and PC3-flu cells; experiment: Confocal imaging of NB7cys, DOX and NB7cysDOX internalization; format: cell-based; settings: 15 min, 1.5 μg/ml DOX or molar equivalent
[3] = system: PC3-PIP cells; experiment: Cell quantification assay; format: cell-based; settings: 24 h, 1.5 μg/ml DOX or equivalent molar amount
Procedure: PC3-PIP cells (5×10^4) were seeded in 24-well plates. […] After 24 h of treatment, the number of cells in each well was counted using the Countess II automated cell counter (Invitrogen).

[4] = system: PC3-PIP cells; experiment: Mitochondrial potential assay (TMRE); format: cell-based; settings: 24 h, 1.5 μg/ml DOX or equivalent molar amount
Procedure: PC3-PIP cells (2×10^4) were seeded on 96-well plates. […] After 24 h, tetramethylrhodamine ethyl ester (TMRE; Abcam, UK) was added according to the protocol provided by the manufacturer. Fluorescence intensity was measured at an excitation wavelength of 549 nm and an emission wavelength of 575 nm.

[5] = system: PC3-PIP xenografts; experiment: Histology of treated tumors (IF, H&E, TUNEL); settings: 4 d after treatment termination
Source text: Four days following the final dose of each treatment in the in vivo tumor growth inhibition assay, the mice were euthanized, and their xenografts were fixated in 4% formaldehyde and embedded in paraffin. Tumor sections (5 μm thickness) were subjected to hematoxylin and eosin (H&E) staining, TUNEL assay, and immunofluorescence (IF), as previously described (Pittala et al., 2018, Fischer et al., 2008). […] 4′,6-diamidino-2-phenylindole (DAPI) was used for nuclei staining. […] TUNEL, PI, and IF were visualized in a confocal microscope.

[6] = system: PC3-PIP cells; experiment: Cell viability assay (propidium iodide, FACS); format: cell-based; settings: 24 h, 1.5 μg/ml DOX or equivalent molar amount
Procedure: PC3-PIP cells were grown and treated as described in the cell quantification assay section, above. The cells were harvested, incubated with 0.5 μg propidium iodide (PI; Biolegend), and their fluorescence intensity was measured in a BD C6 flow cytometer.

Q: `COc1cccc2c1C(=O)c1c(O)c3c(c(O)c1C2=O)C[C@@](O)(C(=O)CO)C[C@@H]3O[C@H]1C[C@H](N)[C@H](O)[C@H](C)O1` [DOX, doxorubicin] was tested. Which “mice reaching maximal tumor size, DOX versus NB7cysDOX groups” value [1] did it give?
A: The value was “not significantly different from each other”.

Q: What about the “cellular distribution in PC3-PIP and PC3-flu cells” value [2] of the same compound?
A: The value was “diffused spontaneously into both PC3-PIP and PC3-flu cells”.

Q: And the “number of cells versus untreated cells” value [3]?
A: The value was “significantly reduced the number of cells in the well”.

Q: And the “mitochondrial membrane potential (TMRE signal)” value [4]?
A: The value was “similarly reduced the mitochondrial membrane potential”.

Q: What about the “H&E staining of tumors” value [5] of the same compound?
A: Its value is “necrotic, fewer, and with large vacancies between cells”.

Q: What about the “TUNEL assay of tumors” value [5] of the same compound?
A: Its value is “significant apoptosis”.

Q: What about the “PI signal (late apoptosis and necrosis)” value [6] of the same compound?
A: Its value is “considerably increased the signal”.
